Source: patent US20050215614A1, “Substituted indoles and their use as hcv inhibitors” (Rigel Pharmaceuticals, Inc., priority 2003, published 2005)

system: HCV replicon; assay: HCV Replicon Assay (luciferase, 5-2 Luc replicon cells); type: cell-based; settings: 5-2 Luc replicon cells (Huh7), 24-48 hours with compound, luciferase counts
Description: Actively dividing 5-2 Luc replicon cells were seeded at the density of 5000-7500 cells/well in the volume of 90 μl/well into 96 well plate(s). The cells were then incubated at 37° C. and 5% CO2 for 24 hours. The 5-2 cells are replicon cells licensed from Ralf Bartenschlager (Germany) and have a self-replicating RNA molecule in the Huh7 cell; the RNA contains HCV non-structural proteins that make the self-replication possible.
Various concentrations of compounds (in the volume of 10 μl) were added into each well 24 hours after seeding the cells. The cells were incubated for another 24-48 hours before luciferase assay.
After incubating the 5-2 Luc replicon cells with the compounds for 24-48 hours, media were aspirated from each well and Bright-Glo (Promega) luciferase assay reagents were added to each well according to the manufacturer′s manual. Briefly, the Bright-Glo reagent was diluted with equal volume of PBS and an aliquote (100 μl) was added to each well. After incubating the plate at room temperature for 5 minutes, luciferase counts were taken using a luminometer.

**Q.** `CC(C)(C)c1cc2cc(NC(=O)CCN3CCCCC3)ccc2[nH]1` [Compound 213] was tested. Which “Activity (concentration of inhibitory activity)” value did it give?
**A.** b (“b” indicates activity is at a concentration greater than 10 micromolar)

**Q.** How did the “Activity (concentration of inhibitory activity)” value turn out when `CC(=O)N1CCC(C(=O)Nc2ccc3[nH]c(C(C)(C)C)cc3c2)CC1` [Compound 214] was run?
**A.** b (“b” indicates activity is at a concentration greater than 10 micromolar)

**Q.** For `CC(C)(C)c1cc2cc(NC(=O)CCc3c[nH]c4ccccc34)ccc2[nH]1` [Compound 215], which “Activity (concentration of inhibitory activity)” value is on record?
**A.** b (“b” indicates activity is at a concentration greater than 10 micromolar)

**Q.** For `CC(C)(C)c1cc2cc(NC(=O)Cc3ccc4c(c3)OCO4)ccc2[nH]1` [Compound 216], which “Activity (concentration of inhibitory activity)” value is on record?
**A.** b (“b” indicates activity is at a concentration greater than 10 micromolar)

**Q.** With `CC(C)(C)c1cc2cc(NC(=O)Cc3cccnc3)ccc2[nH]1` [Compound 217] as the compound, how does the “Activity (concentration of inhibitory activity)” value read?
**A.** b (“b” indicates activity is at a concentration greater than 10 micromolar)

**Q.** How did the “Activity (concentration of inhibitory activity)” value turn out when `CC(=O)NCCC(=O)Nc1ccc2[nH]c(C(C)(C)C)cc2c1` [Compound 218] was run?
**A.** b (“b” indicates activity is at a concentration greater than 10 micromolar)

**Q.** With `CC(C)(C)c1cc2cc(NC(=O)CC(c3ccccc3)c3ccccc3)ccc2[nH]1` [Compound 219] as the compound, how does the “Activity (concentration of inhibitory activity)” value read?
**A.** b (“b” indicates activity is at a concentration greater than 10 micromolar)

**Q.** How did the “Activity (concentration of inhibitory activity)” value turn out when `CC(C)(C)c1cc2cc(NC(=O)Cc3ccc(F)cc3)ccc2[nH]1` [Compound 220] was run?
**A.** b (“b” indicates activity is at a concentration greater than 10 micromolar)

**Q.** With `CC(C)(C)c1cc2cc(NC(=O)Cc3ccc(-c4ccccc4)cc3)ccc2[nH]1` [Compound 221] as the compound, how does the “Activity (concentration of inhibitory activity)” value read?
**A.** b (“b” indicates activity is at a concentration greater than 10 micromolar)

**Q.** Which “Activity (concentration of inhibitory activity)” value does the source give for `CN(C)CCCC(=O)Nc1ccc2[nH]c(C(C)(C)C)cc2c1` [Compound 222] here?
**A.** b (“b” indicates activity is at a concentration greater than 10 micromolar)

**Q.** For `COc1cscc1C(=O)Nc1ccc2[nH]c(C(C)(C)C)cc2c1` [Compound 223], which “Activity (concentration of inhibitory activity)” value is on record?
**A.** a (“a” indicates inhibitory activity at a concentration of less than 10 micromolar)

**Q.** `CCCC(=O)Nc1ccc2[nH]c(C(C)(C)C)cc2c1` [Compound 224] was tested. Which “Activity (concentration of inhibitory activity)” value did it give?
**A.** b (“b” indicates activity is at a concentration greater than 10 micromolar)

**Q.** `CC(C)(C)c1cc2cc(NC(=O)c3ccccc3)ccc2[nH]1` [Compound 225] was tested. Which “Activity (concentration of inhibitory activity)” value did it give?
**A.** b (“b” indicates activity is at a concentration greater than 10 micromolar)

**Q.** `CC(C)(C)c1cc2cc(NC(=O)c3cccc(F)c3)ccc2[nH]1` [Compound 226] was tested. Which “Activity (concentration of inhibitory activity)” value did it give?
**A.** b (“b” indicates activity is at a concentration greater than 10 micromolar)

**Q.** For `CC(C)(C)c1cc2cc(NC(=O)c3cccc(Cl)c3)ccc2[nH]1` [Compound 227], which “Activity (concentration of inhibitory activity)” value is on record?
**A.** b (“b” indicates activity is at a concentration greater than 10 micromolar)

**Q.** For `CC(C)(C)c1cc2cc(NC(=O)c3cc4ccccc4s3)ccc2[nH]1` [Compound 228], which “Activity (concentration of inhibitory activity)” value is on record?
**A.** b (“b” indicates activity is at a concentration greater than 10 micromolar)

**Q.** Which “Activity (concentration of inhibitory activity)” value does the source give for `CC(C)(C)c1cc2cc(NC(=O)c3sccc3Cl)ccc2[nH]1` [Compound 229] here?
**A.** b (“b” indicates activity is at a concentration greater than 10 micromolar)

**Q.** For `CC(C)(C)c1cc2cc(NC(=O)c3ccco3)ccc2[nH]1` [Compound 230], which “Activity (concentration of inhibitory activity)” value is on record?
**A.** b (“b” indicates activity is at a concentration greater than 10 micromolar)

**Q.** How did the “Activity (concentration of inhibitory activity)” value turn out when `Cc1cn(C(=O)c2c(Cl)cccc2Cl)c2ccc(NC(=O)C3(c4ccc(Cl)cc4)CCCC3)cc12` [Compound 231] was run?
**A.** b (“b” indicates activity is at a concentration greater than 10 micromolar)

**Q.** How did the “Activity (concentration of inhibitory activity)” value turn out when `Cc1cn(C(=O)c2c(Cl)cccc2Cl)c2ccc(NC(=O)c3c(Cl)cccc3Cl)cc12` [Compound 232] was run?
**A.** b (“b” indicates activity is at a concentration greater than 10 micromolar)

**Q.** How did the “Activity (concentration of inhibitory activity)” value turn out when `Cc1ccsc1C(=O)Nc1ccc2c(c1)c(C)cn2C(=O)c1c(Cl)cccc1Cl` [Compound 233] was run?
**A.** b (“b” indicates activity is at a concentration greater than 10 micromolar)

**Q.** For `Cc1cn(C(=O)c2c(Cl)cccc2Cl)c2ccc(NC(=O)c3c(F)cccc3F)cc12` [Compound 235], which “Activity (concentration of inhibitory activity)” value is on record?
**A.** b (“b” indicates activity is at a concentration greater than 10 micromolar)

**Q.** How did the “Activity (concentration of inhibitory activity)” value turn out when `Cc1cn(C(=O)c2c(Cl)cccc2Cl)c2ccc(NC(=O)C3CCCCC3)cc12` [Compound 236] was run?
**A.** b (“b” indicates activity is at a concentration greater than 10 micromolar)

**Q.** Which “Activity (concentration of inhibitory activity)” value does the source give for `Cc1cn(C(=O)c2c(Cl)cccc2Cl)c2ccc(NC(=O)/C=C/c3ccccc3)cc12` [Compound 237] here?
**A.** b (“b” indicates activity is at a concentration greater than 10 micromolar)

**Q.** Which “Activity (concentration of inhibitory activity)” value does the source give for `Cc1c(C)n(C(=O)c2c(Cl)cccc2Cl)c2ccc(NC(=O)/C=C/c3ccccc3)cc12` [Compound 238] here?
**A.** b (“b” indicates activity is at a concentration greater than 10 micromolar)

**Q.** `Cc1cc2cc(NC(=O)C3CCCC3)ccc2n1C(=O)c1ccc(Cl)cc1Cl` [Compound 239] was tested. Which “Activity (concentration of inhibitory activity)” value did it give?
**A.** b (“b” indicates activity is at a concentration greater than 10 micromolar)

**Q.** For `Cc1cc2cc(NC(=O)C3CCCC3)ccc2n1C(=O)c1cccc(OC(F)(F)F)c1` [Compound 240], which “Activity (concentration of inhibitory activity)” value is on record?
**A.** b (“b” indicates activity is at a concentration greater than 10 micromolar)

**Q.** With `Cc1cc2cc(NC(=O)C(Cl)Cl)ccc2n1C(=O)c1c(Cl)cccc1Cl` [Compound 241] as the compound, how does the “Activity (concentration of inhibitory activity)” value read?
**A.** b (“b” indicates activity is at a concentration greater than 10 micromolar)

**Q.** With `Cc1cc2cc(NC(=O)c3cccs3)ccc2n1C(=O)c1c(Cl)cccc1Cl` [Compound 242] as the compound, how does the “Activity (concentration of inhibitory activity)” value read?
**A.** b (“b” indicates activity is at a concentration greater than 10 micromolar)

**Q.** How did the “Activity (concentration of inhibitory activity)” value turn out when `Cc1cc2cc(NC(=O)c3cccc(C(F)(F)F)c3)ccc2n1C(=O)c1c(Cl)cccc1Cl` [Compound 243] was run?
**A.** b (“b” indicates activity is at a concentration greater than 10 micromolar)

**Q.** Which “Activity (concentration of inhibitory activity)” value does the source give for `Cc1cc2cc(NC(=O)c3cccc(F)c3)ccc2n1C(=O)c1c(Cl)cccc1Cl` [Compound 244] here?
**A.** b (“b” indicates activity is at a concentration greater than 10 micromolar)

**Q.** `Cc1cc2cc(NC(=O)c3nc4ccccc4s3)ccc2n1C(=O)c1c(Cl)cccc1Cl` [Compound 245] was tested. Which “Activity (concentration of inhibitory activity)” value did it give?
**A.** b (“b” indicates activity is at a concentration greater than 10 micromolar)

**Q.** Which “Activity (concentration of inhibitory activity)” value does the source give for `CC(=O)N1CCC(C(=O)Nc2ccc3c(c2)cc(C)n3C(=O)c2c(Cl)cccc2Cl)CC1` [Compound 246] here?
**A.** b (“b” indicates activity is at a concentration greater than 10 micromolar)

**Q.** `O=C(Nc1ccc2c(ccn2C(=O)c2c(Cl)cccc2Cl)c1)C1CCCC1` [Compound 247] was tested. Which “Activity (concentration of inhibitory activity)” value did it give?
**A.** b (“b” indicates activity is at a concentration greater than 10 micromolar)

**Q.** `O=C(Nc1ccc2c(ccn2C(=O)c2c(Cl)cccc2Cl)c1)C(Cl)Cl` [Compound 248] was tested. Which “Activity (concentration of inhibitory activity)” value did it give?
**A.** b (“b” indicates activity is at a concentration greater than 10 micromolar)

**Q.** Which “Activity (concentration of inhibitory activity)” value does the source give for `O=C(Nc1ccc2c(ccn2C(=O)c2c(Cl)cccc2Cl)c1)c1cccc(F)c1` [Compound 249] here?
**A.** b (“b” indicates activity is at a concentration greater than 10 micromolar)

**Q.** `O=C(Nc1ccc2c(ccn2C(=O)c2c(Cl)cccc2Cl)c1)c1cccc(C(F)(F)F)c1` [Compound 250] was tested. Which “Activity (concentration of inhibitory activity)” value did it give?
**A.** b (“b” indicates activity is at a concentration greater than 10 micromolar)

**Q.** With `O=C(Nc1ccc2c(ccn2C(=O)c2c(Cl)cccc2Cl)c1)c1cccs1` [Compound 251] as the compound, how does the “Activity (concentration of inhibitory activity)” value read?
**A.** b (“b” indicates activity is at a concentration greater than 10 micromolar)

**Q.** Which “Activity (concentration of inhibitory activity)” value does the source give for `O=C(Nc1ccc2c(ccn2C(=O)c2c(Cl)cccc2Cl)c1)C1CCCCC1` [Compound 252] here?
**A.** b (“b” indicates activity is at a concentration greater than 10 micromolar)

**Q.** `O=C(Nc1ccc2c(ccn2C(=O)c2c(Cl)cccc2Cl)c1)C1CC1` [Compound 254] was tested. Which “Activity (concentration of inhibitory activity)” value did it give?
**A.** b (“b” indicates activity is at a concentration greater than 10 micromolar)

**Q.** How did the “Activity (concentration of inhibitory activity)” value turn out when `O=C(Cc1cccnc1)Nc1ccc2c(ccn2C(=O)c2c(Cl)cccc2Cl)c1` [Compound 255] was run?
**A.** b (“b” indicates activity is at a concentration greater than 10 micromolar)

**Q.** With `Cc1cc2cc(NC(=O)c3sccc3Cl)ccc2n1C(=O)c1c(Cl)cccc1Cl` [Compound 256] as the compound, how does the “Activity (concentration of inhibitory activity)” value read?
**A.** b (“b” indicates activity is at a concentration greater than 10 micromolar)

**Q.** With `Cc1cc2cc(NC(=O)c3cccnc3)ccc2n1C(=O)c1c(F)cccc1C(F)(F)F` [Compound 257] as the compound, how does the “Activity (concentration of inhibitory activity)” value read?
**A.** b (“b” indicates activity is at a concentration greater than 10 micromolar)

**Q.** For `O=C(Nc1ccc2c(ccn2C(=O)c2c(Cl)cccc2Cl)c1)C1CCC1` [Compound 258], which “Activity (concentration of inhibitory activity)” value is on record?
**A.** b (“b” indicates activity is at a concentration greater than 10 micromolar)

**Q.** For `Cc1cc2cc(NC(=O)C3CC3)ccc2n1C(=O)c1ccccc1` [Compound 259], which “Activity (concentration of inhibitory activity)” value is on record?
**A.** b (“b” indicates activity is at a concentration greater than 10 micromolar)

**Q.** With `Cc1cc2cc(NC(=O)C3CCCCC3)ccc2n1C(=O)c1ccccc1` [Compound 260] as the compound, how does the “Activity (concentration of inhibitory activity)” value read?
**A.** b (“b” indicates activity is at a concentration greater than 10 micromolar)

**Q.** With `Cc1cccc(F)c1C(=O)n1c(C)cc2cc(NC(=O)C3CCCCC3)ccc21` [Compound 262] as the compound, how does the “Activity (concentration of inhibitory activity)” value read?
**A.** b (“b” indicates activity is at a concentration greater than 10 micromolar)

**Q.** How did the “Activity (concentration of inhibitory activity)” value turn out when `Cc1cc2cc(NC(=O)CBr)ccc2n1C(=O)c1c(Cl)cccc1Cl` [Compound 263] was run?
**A.** b (“b” indicates activity is at a concentration greater than 10 micromolar)
